Experimental data as given in US20230346741A1, “ERIODICTYOL COMPOSITIONS AND METHODS” (CAS PROPERTIES, LLC, priority 2022, published 2023).

Tests used:
[1] = Treatment of a subject with long-COVID syndrome (case report); format: in vivo, human; details: 60 mg per day (2 x 30 mg capsules) for three months; one subject
Procedure: A subject having a diagnosis of long-COVID syndrome was administered 60 milligrams (mg) eriodictyol (30 mg/vegetarian capsule; 2 capsules daily) per day for three months. The subject reported an over 80% reduction in long-covid symptoms that included a 80% reduction in fatigue, brain fog, difficulty concentrating, difficulty remembering, difficulty finding the right words, and difficulty multi-tasking.

[2] = test system: IL-1β secretion, human SV40 microglia cells; assay: IL-1β secretion by LPS-stimulated human SV40 microglia after pretreatment; format: cell-based; details: 50 micromolar concentration; pretreated two hours, then LPS stimulation; FIG. 2
Source text: Cultured human SV40 microglia cells were pretreated with eriodictyol (Erio) or nobiletin (Nobi) for two hours to determine the degree to which eriodictyol and nobiletin inhibits the secretion of the proinflammatory cytokine interleukin-1β(IL-1β) followed by stimulation by bacteria lipopolysaccharide (LPS).

Chikungunya virus = assay: Plaque reduction in human microglia cells infected with Chikungunya virus; details: 100 micromolar concentration; FIG. 1

| SMILES | reduction in fatigue, brain fog, difficulty concentrating, remembering, finding the right words and multi-tasking (subject-reported) [1] [%] | reduction in long-covid symptoms (subject-reported) [1] | inhibition of IL-1β secretion compared with luteolin and methoxyluteolin [2] | potency of plaque inhibition compared with nobiletin (Chikungunya virus) |
| --- | --- | --- | --- | --- |
| O=C1C[C@@H](c2ccc(O)c(O)c2)Oc2cc(O)cc(O)c21 [eriodictyol, (2S)-2-(3,4-Dihydroxyphenyl)-5,7-dihydroxy-2,3-dihydro-4H-1-benzopyran-4-one] | 80 | over 80% | more potent inhibitors of IL-1β secretion as compared to luteolin (Lut) and methoxyluteolin (Methlut) | slightly more potent inhibitor than nobiletin |
| COc1ccc(-c2cc(=O)c3c(OC)c(OC)c(OC)c(OC)c3o2)cc1OC [nobiletin, reference compound] |  |  | more potent inhibitors of IL-1β secretion as compared to luteolin (Lut) and methoxyluteolin (Methlut) |  |
